This experiment has as its target T1, human Trk A kinase (Homo sapiens, UniProt P04629).
T1 construct: HIS; made in house; host or cells: SF9 insect cells
As to the kind of experiment: Trk A Assay (Alphascreen kinase assay). Format: biochemical. The settings on record: 70 μM ATP, PolyEY-biotin substrate, 20 minutes, room temperature, read-out: Trk inhibitory activity IC50. As to the method: After incubation of the kinase with a biotinylated substrate and adenosine triphosphate (ATP) for 20 minutes at room temperature, the kinase reaction was stopped by the addition of 30 mM ethylenediaminetetraacetic acid (EDTA). The reaction was performed in 384 well microtitre plates and the reaction products were detected with the addition of strepavidin coated Donor Beads and phosphotyrosine-specific antibodies coated Acceptor Beads using the EnVision Multilabel Plate Reader after an overnight incubation at room temperature.
A general note: Alpha assays give light when donor and acceptor beads are brought close together.

Each structure is given as a SMILES string.

T1 sequence (P04629 442-796): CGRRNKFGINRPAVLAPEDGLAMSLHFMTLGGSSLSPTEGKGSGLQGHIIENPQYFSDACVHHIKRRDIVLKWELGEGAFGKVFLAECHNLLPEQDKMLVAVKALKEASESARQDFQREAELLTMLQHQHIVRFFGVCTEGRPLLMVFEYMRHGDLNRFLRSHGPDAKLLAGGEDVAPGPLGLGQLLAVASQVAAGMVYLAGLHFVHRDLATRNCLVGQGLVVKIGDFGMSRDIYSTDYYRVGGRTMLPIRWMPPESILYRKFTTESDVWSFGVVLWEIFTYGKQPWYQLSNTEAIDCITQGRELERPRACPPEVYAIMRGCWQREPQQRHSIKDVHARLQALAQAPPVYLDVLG

Usually IC50 stands for the concentration needed to halve the response being measured. As to `C[C@H](Nc1ncc(F)c(Nc2cc(C3CC3)[nH]n2)n1)c1ccc(F)cn1` [Example 3, (S)-5-Fluoro-N^1-(5-cyclopropyl-1H-pyrazol-3-yl)-N^2-(1-(5-fluoropyridin-2-yl)ethyl)pyrimidine-2,4-diamine], the concentration for half-maximal inhibition (IC50) was 10 nM.

(Values after patent US8114989B2, “Pyrazolylaminopyrimidine derivatives useful as tyrosine kinase inhibitors” (AstraZeneca AB, priority 2005, dated 2012).)
